Among the data in patent US7511047B2, “Kinase inhibitors” (Cytopia Research Pty Ltd, priority 2002, dated 2009) are inhibition values, retold here.

Holding throughout (type): biochemical
In one assay the target is kdr (Homo sapiens, UniProt P35968). Nature of the assay: kdr kinase assay (ELISA or Alphascreen). The note with it: capacity to inhibit 50% of activity at 50 μM; read-out: kdr inhibitory activity. Here is the method: (§1) For screening purposes, compounds were diluted in 96 well plates at a concentration of 20 μM. Plates were warmed at 37° C. for 30 minutes before assay.
Chain of kdr (P35968 834-1162 limits assumed, species assumed): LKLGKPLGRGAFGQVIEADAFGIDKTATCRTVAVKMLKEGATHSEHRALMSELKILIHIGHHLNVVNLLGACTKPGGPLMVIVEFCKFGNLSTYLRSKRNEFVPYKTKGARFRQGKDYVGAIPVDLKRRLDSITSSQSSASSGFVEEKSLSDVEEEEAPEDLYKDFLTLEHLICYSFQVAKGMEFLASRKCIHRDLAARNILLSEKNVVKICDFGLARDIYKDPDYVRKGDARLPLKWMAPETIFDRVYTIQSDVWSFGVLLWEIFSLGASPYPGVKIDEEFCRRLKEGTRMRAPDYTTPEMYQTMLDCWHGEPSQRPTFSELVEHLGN
(§2) Kinase assays were performed either in a 96 well capture-based ELISA assay or in 384 well Optiplates (Packard) using an Alphascreen Protein Tyrosine Kinase kit. In either casse using approximately 1.5 μg of affinity purified PTK domain in the presence of 50 mM HEPES, pH 7.5, 10 mM MgCl2, 150 mM NaCl and 10 μM-1 mM ATP. The biotinylated substrate biotin-EGPWLEEEEEAYGWMDF-NH2 (SEQ ID NO:9) (final concentration 5 μM) was used as substrate. In the ELISA assay tyrosine phosphorylation was quantitated following transfer to an avidin coated ELISA plate using peroxidase-linked anti-phospho-tyrosine antibody PY20. In the Alphascreen assay, Alphascreen phosphotyrosine acceptor beads followed by streptavidin donor beads were added under subdued light. The ELISA plates were read on a BMG Fluorostar, the Alphascreen plates were read on a Packard Fusion Alpha. Inhibitors were added to the assays fifteen minutes prior to the addition of ATP. Inhibitors were added in aqueous DMSO, with DMSO concentrations never exceeding 1%.
For orientation: An ELISA detects its analyte on a solid surface through an enzyme-linked reagent.

A further assay concerns the target T1, Jak3 (Homo sapiens, UniProt P52333).
T1 construct: The kinase domain of humanJAK3 was amplified from U937mRNA; His tag (from pFastBac HTb vector) (N); made in house; host or cells: baculovirus; Sf9 insect cells for virus, High Five cells for large-scale production
Nature of the assay: JAK3 kinase domain assay (ELISA or Alphascreen). The note with it: capacity to inhibit 50% of activity at 50 μM; read-out: Jak3 inhibitory activity. Here is the method:
as §1
• JAK2 PCR products were cloned into the pFastBac HTc expression vector (Gibco) via the Sal I and Not I sites. The JAK2 plasmid was then transformed into competent DH10Bac cells (Gibco), and the recombinant baculovirus produced prepared for transfection into Sf9 insect cells. JAK3 • The kinase domain of humanJAK3 was amplified from U937mRNA using the polymerase chain reaction with the following primers:
• JAK3 PCR products were cloned into the pFastBac HTb expression vector (Gibco) via the Xho I and Kpn I sites. The JAK3 plasmid was then transformed into competent DH10Bac cells (Gibco), and the recombinant baculovirus produced prepared for transfection into Sf9 insect cells. TYK2 • The kinase domain of humanTYK2 was amplified from A549 mRNA using the polymerase chain reaction with the following primers: […]
(§3) Baculovirus preparations from each of the JAK family members were infected into five litres of High Five cells (Invitrogen) grown in High Five serum free medium (Invitrogen) to a cell density of approximately 1-2×10^6 cells/ml. Cells are infected with virus at a MOI of 0.8-3.0. Cells were harvested and lysed. JAK kinase domains were purified by affinity chromatography on a Probond (Invitrogen) nickel chelate affinity column.
as §2

The target in the next assay is T2, abl (Homo sapiens, UniProt P00519).
T2 sequence (P00519 242-493 limits assumed): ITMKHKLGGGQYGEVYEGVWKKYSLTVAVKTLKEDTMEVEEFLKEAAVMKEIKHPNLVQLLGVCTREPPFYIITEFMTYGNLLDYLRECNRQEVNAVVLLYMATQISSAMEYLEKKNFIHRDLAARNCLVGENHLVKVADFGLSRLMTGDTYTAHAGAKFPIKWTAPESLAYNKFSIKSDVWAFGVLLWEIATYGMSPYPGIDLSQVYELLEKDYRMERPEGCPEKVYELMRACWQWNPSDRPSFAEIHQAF
Nature of the assay: abl kinase assay (ELISA or Alphascreen). The conditions noted are these: capacity to inhibit 50% of activity at 50 μM; read-out: abl inhibitory activity. On the procedure:
as §1, §2

A further assay addresses T3, Jak2 (Homo sapiens, UniProt O60674).
T3 construct: The kinase domain of humanJAK2 was amplified from U937mRNA; His tag (from pFastBac HTc vector) (N); made in house; host or cells: baculovirus; Sf9 insect cells for virus, High Five cells for large-scale production
Nature of the assay: JAK2 kinase domain assay (ELISA or Alphascreen). The note with it: capacity to inhibit 50% of activity at 50 μM; read-out: Jak2 inhibitory activity. On the procedure: as §1
• JAK1 PCR products were cloned into the pFastBac HTb expression vector (Gibco) via the Xho I and Kpn I sites. The JAK1 plasmid was then transformed into competent DH10Bac cells (Gibco), and the recombinant baculovirus produced prepared for transfection into Sf9 insect cells. JAK2 • The kinase domain of humanJAK2 was amplified from U937mRNA using the polymerase chain reaction with the following primers:
• JAK2 PCR products were cloned into the pFastBac HTc expression vector (Gibco) via the Sal I and Not I sites. The JAK2 plasmid was then transformed into competent DH10Bac cells (Gibco), and the recombinant baculovirus produced prepared for transfection into Sf9 insect cells. JAK3 • The kinase domain of humanJAK3 was amplified from U937mRNA using the polymerase chain reaction with the following primers: […]
as §3, §2

A further assay addresses hck (Homo sapiens, UniProt P08631). Nature of the assay: hck kinase assay (ELISA or Alphascreen). The note with it: capacity to inhibit 50% of activity at 50 μM; read-out: hck inhibitory activity. Here is the method:
as §1, §2

T3 sequence (O60674 849-1124 limits assumed): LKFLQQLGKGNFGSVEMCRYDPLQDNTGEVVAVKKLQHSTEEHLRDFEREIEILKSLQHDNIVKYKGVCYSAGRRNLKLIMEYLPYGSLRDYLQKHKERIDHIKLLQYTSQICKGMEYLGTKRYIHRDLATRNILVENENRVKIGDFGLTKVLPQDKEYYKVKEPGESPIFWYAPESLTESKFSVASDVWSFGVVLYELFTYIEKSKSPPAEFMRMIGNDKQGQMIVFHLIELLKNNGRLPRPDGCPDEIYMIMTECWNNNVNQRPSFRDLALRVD
T1 sequence (P52333 822-1111 limits assumed): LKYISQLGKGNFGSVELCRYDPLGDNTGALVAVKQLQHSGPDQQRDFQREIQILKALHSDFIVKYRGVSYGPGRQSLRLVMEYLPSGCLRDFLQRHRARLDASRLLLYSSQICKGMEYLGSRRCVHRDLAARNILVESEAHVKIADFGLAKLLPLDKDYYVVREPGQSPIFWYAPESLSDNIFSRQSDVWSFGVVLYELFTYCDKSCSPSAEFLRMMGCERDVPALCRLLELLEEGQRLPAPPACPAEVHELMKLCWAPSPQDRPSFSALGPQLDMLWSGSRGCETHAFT
Chain of hck (P08631 262-515 limits assumed, species assumed): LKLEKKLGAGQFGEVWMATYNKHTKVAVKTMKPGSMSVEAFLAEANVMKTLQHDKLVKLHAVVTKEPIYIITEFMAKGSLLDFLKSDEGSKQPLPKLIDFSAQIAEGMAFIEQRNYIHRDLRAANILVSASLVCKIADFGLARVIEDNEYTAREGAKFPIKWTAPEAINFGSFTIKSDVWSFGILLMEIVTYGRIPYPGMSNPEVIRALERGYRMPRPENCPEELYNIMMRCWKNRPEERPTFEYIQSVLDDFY

`C[C@H](Nc1cncc(-n2cnc3ccc(C(=O)NCCO)cc32)n1)c1ccccc1`: the inhibition at 50 µM on kdr, at Jak3, at abl, at Jak2 and at hck was more than 50% in each case.

Turning to `C[C@H](Nc1cncc(-n2cnc3cc(NC(=O)C(C)(C)C)ccc32)n1)c1ccccc1`, the inhibition at 50 µM at kdr, on Jak3, at abl, on Jak2 and on hck was more than 50% in each case.

As to `C[C@H](Nc1cncc(-n2cnc3cc(NC(=O)C4CCCN4)ccc32)n1)c1ccccc1` (stereo partly shown), the inhibition at 50 µM was more than 50% at kdr; more than 50% at Jak3; less than 50% on abl; more than 50% on Jak2; more than 50% at hck.

Regarding `COCC(=O)Nc1ccc2c(c1)ncn2-c1cncc(N[C@@H](C)c2ccccc2)n1`, the inhibition at 50 µM on kdr is more than 50%; at Jak3, less than 50%; on abl, more than 50%; at Jak2, less than 50%; on hck it was more than 50%.

With `CNC(=O)c1ccc2ncn(-c3cncc(N[C@@H](C)c4ccccc4)n3)c2c1`, the inhibition at 50 µM on kdr, on Jak3, at abl, at Jak2 and on hck was more than 50% each time.

`CC(=O)Nc1ccc2c(c1)ncn2-c1cncc(N[C@@H](C)c2ccccc2)n1`: the inhibition at 50 µM is more than 50% on kdr; less than 50% on Jak3; more than 50% on abl; less than 50% at Jak2; more than 50% at hck.

With `Cc1nccn1-c1cncc(NCc2ccc(F)cc2)n1`, the inhibition at 50 µM is less than 50% on kdr; more than 50% at Jak3; less than 50% at abl; less than 50% on Jak2; more than 50% on hck.

With `C[C@H](Nc1cncc(-n2ccnc2)n1)c1ccccc1`, the inhibition at 50 µM at kdr was less than 50%; on Jak3, less than 50%; at abl, more than 50%; at Jak2, less than 50%; at hck it was more than 50%.

In the case of `C[C@H](Nc1cncc(-n2cnc3ccc(C(=O)NCCCCN4CCOCC4)cc32)n1)c1ccccc1`, the inhibition at 50 µM at kdr, on Jak3, on abl, on Jak2 and on hck was more than 50% each time.

On to `C[C@H](Nc1cncc(-n2cnc3cc(Br)ccc32)n1)c1ccccc1`, for which the inhibition at 50 µM on kdr, at Jak3, at abl, at Jak2 and at hck was more than 50% each time.

As for `c1cn(-c2cncc(Nc3ccc(N4CCOCC4)cc3)n2)cn1`, the inhibition at 50 µM at kdr was less than 50%; on Jak3, less than 50%; at abl it was more than 50%; on Jak2, more than 50%; on hck, more than 50%.

Take `C[C@H](Nc1cncc(-n2cnc(-c3ccccc3)c2)n1)c1ccccc1`: the inhibition at 50 µM was less than 50% at kdr; more than 50% on Jak3; less than 50% at abl; less than 50% on Jak2; more than 50% on hck.

In the case of `C[C@H](Nc1cncc(-n2cnc3ccc(NS(C)(=O)=O)cc32)n1)c1ccccc1`, the inhibition at 50 µM was more than 50% on kdr; less than 50% at Jak3; more than 50% on abl; more than 50% on Jak2; more than 50% on hck.

Turning to `Cc1cncn1-c1cncc(NCc2ccc(F)cc2)n1`, the inhibition at 50 µM at kdr was less than 50%; on Jak3, less than 50%; at abl, more than 50%; on Jak2, less than 50%; at hck, more than 50%.

Turning to `C[C@H](Nc1cncc(-n2cnc3ccc(NC(=O)C4CC4)cc32)n1)c1ccccc1`, the inhibition at 50 µM is more than 50% at kdr; less than 50% at Jak3; more than 50% at abl; less than 50% at Jak2; more than 50% on hck.

As to `C[C@H](Nc1cncc(-n2cnc3cc(CN4CCN(C)CC4)ccc32)n1)c1ccccc1`, the inhibition at 50 µM on kdr is more than 50%; on Jak3, less than 50%; at abl it was less than 50%; on Jak2, less than 50%; on hck, more than 50%.

In the case of `Cc1nc2ccccc2n1-c1cncc(N[C@@H](C)c2ccccc2)n1`, the inhibition at 50 µM on kdr, at Jak3, at abl, at Jak2 and on hck was less than 50% each time.

Consider `C[C@H](Nc1cncc(-n2cnc3cc(C(=O)N4CCOCC4)ccc32)n1)c1ccccc1`, for which the inhibition at 50 µM was more than 50% on kdr; less than 50% at Jak3; more than 50% on abl; less than 50% at Jak2; more than 50% on hck.

Turning to `c1ccc(CNc2cncc(-n3cnc4ccccc43)n2)cc1`, the inhibition at 50 µM on kdr is less than 50%; on Jak3, more than 50%; on abl it was more than 50%; on Jak2, more than 50%; on hck, more than 50%.

For the molecule `Cc1nccn1-c1cncc(N[C@H](C)c2ccccc2)n1`, the inhibition at 50 µM is less than 50% on kdr; less than 50% at Jak3; less than 50% on abl; less than 50% at Jak2; more than 50% on hck.

As to `CCN(CC)Cc1ccc2ncn(-c3cncc(NC(C)c4ccc(F)cc4)n3)c2c1` (stereo not shown), the inhibition at 50 µM on kdr was more than 50%; on Jak3, less than 50%; at abl, less than 50%; on Jak2, more than 50%; on hck, more than 50%.

As to `C[C@H](Nc1cncc(-n2cnc3ccccc32)n1)c1ccccc1`, the inhibition at 50 µM is more than 50% at kdr; less than 50% on Jak3; more than 50% on abl; more than 50% at Jak2; more than 50% on hck.

Regarding `C[C@H](Nc1cncc(-n2cnc3ccc(NC(=O)C(C)(C)C)cc32)n1)c1ccccc1`, the inhibition at 50 µM on kdr, at Jak3, at abl, on Jak2 and at hck was more than 50% each time.
